From patent publication US7396841B2, “Injections” (Takeda Pharmaceutical Company Limited, priority 2000, dated 2008)

Assay: Dissolution of compound A in equimolar 0.2 mol/L sodium hydroxide and appearance of aqueous preparations (Examples 1 and 2)
Type: physicochemical
Experimental: The resultant solutions (1 mL and 2 mL) were filled into vials to prepare injectable compositions of formulations 1 and 2 in Table 1.
In accordance with the formulation of preparation solution in Table 2, the compound A was dissolved in the equivalent amount (in molar ratio) of a sodium hydroxide aqueous solution (0.2 mol/L), and then mannitol, N-methylglucamine and a water for injection were added thereto to dissolve followed by sterile filtration with a filter (0.22 μm) made from Durapola (manufactured by Nihon Millipore Ltd.) to prepare a preparation solution for injectable composition A.

SMILES: Cc1c(OCC(F)(F)F)ccnc1C[S+]([O-])c1nc2ccccc2[nH]1 (centres unmarked) [Compound A, 2-[[[3-methyl-4-(2,2,2-trifluoroethoxy)-2-pyridinyl]methyl]sulfinyl]-1H-benzimidazole]
- Appearance of resultant solution (compound A in equimolar sodium hydroxide aqueous solution (0.2 mol/L)): transparent and colorless
- Dissolution of compound A (in the equivalent amount (in molar ratio) of a sodium hydroxide aqueous solution (0.2 mol/L)): quickly dissolved
